According to patent US20090209460A1, “COMPOSITIONS AND METHODS FOR TREATING OBESITY AND RELATED METABOLIC DISORDERS” (Amylin Pharmaceuticals, Inc., priority 2005, published 2009):
Where two headings read alike, the source gives them in different places. Residues, ends and D or L forms follow the SMILES beside them.

What was measured:
NIH/Swiss mice = assay: acute food intake assay, lean overnight-fasted NIH/Swiss mice, intraperitoneal injection; format: in vivo, mouse; conditions: for reduction of food intake: administered systemically (i.p. to mice), dose and time not stated; for FI (60′, 200): % change relative to control, 60 min; for Activity (percent decrease in cumulative food intake compared to the vehicle), AUC: intraperitoneal, timepoint 120 min
How it was run: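 Overnight-fasted lean female NIH/Swiss mice (8-24 weeks, group housed) received vehicle or peptide intraperitoneally at time 0, then pre-weighed standard chow. Food consumed was weighed at 30, 60 and 120 min and expressed as % change versus control.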

over-night fasted rats = assay: food intake in over-night fasted rats, given intraperitoneally; format: in vivo, rat; conditions: 0.1 to 1.5 mg/kg, 30 and 60 minutes
Protocol: FN38 in vehicle (10% DMSO in saline) was administered at 0.1 to 1.5 mg/kg. The food intake in grams and as a percent of vehicle are presented in FIGS. 4A and 4B at 30 and 60 minutes, respectively. FIG. 4C presents the same data plotted as grams of food consumed (intake) versus time. The results cannot be attributed to a locomotor effect (data not shown).

[1] = body weight and food intake in mice with diet induced obesity (mouse DIO), osmotic pump; format: in vivo; conditions: mouse DIO
How it was run: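 Male C57BL/6 mice, 4 weeks old at start, were fed a 58% kcal-fat diet for 4 weeks. Interscapular osmotic pumps then delivered peptide continuously at the indicated dose, or vehicle (50% DMSO in water or saline). Body weight and food intake were recorded weekly.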

[2] = cumulative weight gain in rats with diet induced obesity (rat DIO), subcutaneous pump for seven days; format: in vivo; conditions: subcutaneously continuously by pump for seven days
Protocol: Both compounds were administered subcutaneously continuously by pump for seven days at the rate and dosage indicated.

[3] = brush border membrane (BBM) stability assay; format: in vitro ADME, human; conditions: for remaining at 5 h: brush border membrane extract (e.g. kidney)
How it was run: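 Peptides digested up to 5 h at 37 °C with human brush border membrane extract (e.g. kidney). Timepoints quenched with 50% ACN, 1% FA, centrifuged, intact peptide quantified by selected-ion mass spectrometry. Expressed as percent stable.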

DPP-IV = DPP-IV (Homo sapiens, UniProt P27487); assay: DPP-IV degradation; format: in vitro ADME; conditions: isolated DPP-IV peptidase, 25 mM HEPES buffer, 37 degrees C., 10 mM peptide, read-out: intact after contact with DPP-IV
Chain of DPP-IV (P27487 whole entry, species assumed): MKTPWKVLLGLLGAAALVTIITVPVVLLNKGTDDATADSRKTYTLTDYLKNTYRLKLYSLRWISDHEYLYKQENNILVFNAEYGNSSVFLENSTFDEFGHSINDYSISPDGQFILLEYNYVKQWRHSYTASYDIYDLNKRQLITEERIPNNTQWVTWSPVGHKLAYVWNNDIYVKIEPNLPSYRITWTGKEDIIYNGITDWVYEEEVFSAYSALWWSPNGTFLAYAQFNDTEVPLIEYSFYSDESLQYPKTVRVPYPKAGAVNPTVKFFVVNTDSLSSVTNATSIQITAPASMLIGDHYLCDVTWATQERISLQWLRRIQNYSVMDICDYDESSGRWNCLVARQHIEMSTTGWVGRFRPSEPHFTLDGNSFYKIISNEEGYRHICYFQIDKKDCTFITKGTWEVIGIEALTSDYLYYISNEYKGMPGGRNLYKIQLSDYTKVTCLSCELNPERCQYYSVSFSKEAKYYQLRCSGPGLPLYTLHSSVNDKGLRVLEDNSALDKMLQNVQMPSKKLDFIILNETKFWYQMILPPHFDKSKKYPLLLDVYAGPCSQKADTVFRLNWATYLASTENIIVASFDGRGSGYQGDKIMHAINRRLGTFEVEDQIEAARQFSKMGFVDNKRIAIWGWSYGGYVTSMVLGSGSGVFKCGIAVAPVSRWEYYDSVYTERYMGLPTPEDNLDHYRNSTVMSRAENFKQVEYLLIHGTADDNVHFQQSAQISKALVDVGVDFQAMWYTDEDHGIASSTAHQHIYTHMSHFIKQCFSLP
Protocol: Peptide and peptidase were incubated in 25 mM HEPES buffer at 37 degrees C. at 10 mM peptide.

rats = conditions: 10 μg ICV dose; cited from earlier work

CC(C)C[C@H](NC(=O)[C@H](CCCCN)NC(=O)[C@H](CCC(N)=O)NC(=O)[C@@H](NC(=O)[C@H](CCCCN)NC(=O)[C@H](CO)NC(=O)[C@H](Cc1ccc(O)cc1)NC(=O)[C@H](Cc1c[nH]cn1)NC(=O)[C@H](Cc1ccccc1)NC(=O)[C@H](CC(C)C)NC(=O)[C@@H](N)Cc1ccccc1)[C@@H](C)O)C(=O)NCC(=O)N[C@@H](CCCCN)C(=O)N[C@@H](CO)C(=O)N[C@@H](CC(N)=O)C(=O)N[C@H](C(=O)N[C@H](C(=O)N[C@@H](CCC(=O)O)C(=O)N[C@@H](CCC(=O)O)C(=O)N[C@@H](CC(C)C)C(=O)N[C@@H](CCC(N)=O)C(=O)N[C@@H](CO)C(=O)N1CCC[C@H]1C(=O)N[C@@H](Cc1ccccc1)C(=O)N[C@@H](C)C(=O)N[C@@H](CO)C(=O)N[C@@H](CCC(N)=O)C(=O)N[C@@H](CO)C(=O)N[C@@H](CCCNC(=N)N)C(=O)NCC(=O)N[C@@H](Cc1ccc(O)cc1)C(=O)N[C@@H](Cc1ccccc1)C(=O)N[C@@H](CC(C)C)C(=O)N[C@@H](Cc1ccccc1)C(=O)N[C@@H](CCCNC(=N)N)C(=O)N1CCC[C@H]1C(=O)N[C@@H](CCCNC(=N)N)C(=O)N[C@@H](CC(N)=O)C(N)=O)C(C)C)C(C)C [Compound 163661] (H-FLFHYSKTQKLGKSNVVEELQSPFASQSRGYFLFRPRN-NH2; N-terminus assumed)
reduction of food intake (NIH/Swiss mice): 64%
FI (60′, 200) (NIH/Swiss mice; food intake): 0%
ED50 at t = 60 (NIH/Swiss mice; food intake, t = 60): 4 nmol/kg
Activity (percent decrease in cumulative food intake compared to the vehicle), AUC (NIH/Swiss mice; dose 0.3 nmol/kg): 0%
Activity (percent decrease in cumulative food intake compared to the vehicle), AUC (NIH/Swiss mice; dose 1 nmol/kg): −23%
Activity (percent decrease in cumulative food intake compared to the vehicle), AUC (NIH/Swiss mice; dose 3 nmol/kg): −25%
Activity (percent decrease in cumulative food intake compared to the vehicle), AUC (NIH/Swiss mice; dose 10 nmol/kg): −48%
Activity (percent decrease in cumulative food intake compared to the vehicle), AUC (NIH/Swiss mice; dose 30 nmol/kg): −58%
Activity (percent decrease in cumulative food intake compared to the vehicle), AUC (NIH/Swiss mice; dose 100 nmol/kg): −72%
Activity (percent decrease in cumulative food intake compared to the vehicle), AUC (NIH/Swiss mice; dose 300 nmol/kg): −60%
Activity (percent decrease in cumulative food intake compared to the vehicle), AUC (NIH/Swiss mice; dose 1000 ug/kg): −46%
Food Intake Inhibition (NIH/Swiss mice; mouse assay, dose of 200 mg/kg, measured at 60 minutes): −46%
ED50 for effect on food intake (NIH/Swiss mice; over 30 min, i.p., mice): 8.6 nmol/kg
effect on food intake in over-night fasted rats (over-night fasted rats): inhibiting food intake
d 2 BWt loss ([1]; day 2): 6.5%
d 7 BWt loss ([1]; day 7): 4.3%
cumulative weight gained in rat DIO (FIG. 5) [2]: reduction of cumulative weight gained
remaining at 5 h ([3]; percent compound remaining after a 5 hour incubation, human brush border membrane assay, read-out: hBBM): 62%
BBM ([3]; percent of stable, human brush border membrane extracts, five hours, 37° C.): 62%
remaining at 50 min, 10 mM (DPP-IV): ~100%

CC(C)C[C@H](NC(=O)[C@H](Cc1ccccc1)NC(=O)[C@H](Cc1ccc(O)cc1)NC(=O)CNC(=O)[C@H](CCCNC(=N)N)NC(=O)[C@H](CO)NC(=O)[C@H](CCC(N)=O)NC(=O)[C@H](CO)NC(=O)[C@H](C)NC(=O)[C@H](Cc1ccccc1)NC(=O)[C@@H]1CCCN1C(=O)[C@H](CO)NC(=O)[C@H](CCC(N)=O)NC(=O)[C@H](Cc1ccccc1)NC(=O)[C@H](CCC(=O)O)NC(=O)[C@H](CCC(=O)O)NC(=O)[C@H](CC(=O)O)NC(=O)[C@@H](NC(=O)[C@H](CCCNC(=N)N)NC(=O)[C@@H](N)Cc1ccccc1)C(C)C)C(=O)N[C@@H](Cc1ccccc1)C(=O)N[C@@H](CCCNC(=N)N)C(=O)N1CCC[C@H]1C(=O)N[C@@H](CCCNC(=N)N)C(=O)N[C@@H](CC(N)=O)C(N)=O [Compound 165054, reference compound] (H-FRVDEEFQSPFASQSRGYFLFRPRN-NH2; N-terminus assumed)
reduction of food intake (NIH/Swiss mice): at least 91%
FI (60′, 200) (NIH/Swiss mice; food intake): −65%
potency administered peripherally versus centrally (i.c.v.), on a presumed concentration basis (NIH/Swiss mice; i.p. ED50 in mice compared with literature ICV dose in rats): ~300 fold
remaining at 5 h ([3]; percent of stable, human brush border membrane extracts, five hours, 37° C., read-out: BBM): 13%
reduction in food intake (rats): ~30%
